The results in this text go back to ChEMBL document CHEMBL5346973 (J Med Chem, 2023).

The IC50 is the concentration at which inhibition is half-maximal.

SMILES strings stand for the structures. Where a SMILES comes first, the peptide text is derived from it.

Assay [1] has as its target Nicotinic acetylcholine receptor alpha9/alpha10 (Rattus norvegicus, UniProt P43144+Q9JLB5). Nature of the assay: Antagonist activity at rat alpha9alpha10 nACh receptor expressed in Xenopus oocyte assessed as inhibition of acetylcholine-induced response at -70 mV holding potential by voltage-clamp based electrophysiological assay. The class given is cell-based.
For assay [2], the target named is Neuronal acetylcholine receptor subunit alpha-7 (Rattus norvegicus, UniProt Q05941). Nature of the assay: Antagonist activity at rat alpha7 nACh receptor expressed in Xenopus oocyte assessed as inhibition of acetylcholine-induced response at -70 mV holding potential by voltage-clamp based electrophysiological assay. The assay is classed as cell-based.
Sequence of Neuronal acetylcholine receptor subunit alpha-7 (Q05941 whole entry): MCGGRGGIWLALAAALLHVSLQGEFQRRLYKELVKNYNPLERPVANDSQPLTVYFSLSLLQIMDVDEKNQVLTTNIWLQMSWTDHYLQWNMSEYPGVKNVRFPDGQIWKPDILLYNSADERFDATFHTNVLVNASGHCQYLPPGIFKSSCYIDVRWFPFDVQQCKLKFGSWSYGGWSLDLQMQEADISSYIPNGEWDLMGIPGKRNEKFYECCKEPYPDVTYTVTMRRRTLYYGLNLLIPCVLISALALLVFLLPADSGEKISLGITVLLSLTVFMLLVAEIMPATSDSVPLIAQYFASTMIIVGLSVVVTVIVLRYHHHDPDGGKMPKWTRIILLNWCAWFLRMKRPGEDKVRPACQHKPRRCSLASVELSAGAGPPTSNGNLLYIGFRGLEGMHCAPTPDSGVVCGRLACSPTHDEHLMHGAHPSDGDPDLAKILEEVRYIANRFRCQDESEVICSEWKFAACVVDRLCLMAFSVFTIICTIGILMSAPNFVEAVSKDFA

Sequence of Nicotinic acetylcholine receptor alpha9/alpha10 (P43144 whole entry): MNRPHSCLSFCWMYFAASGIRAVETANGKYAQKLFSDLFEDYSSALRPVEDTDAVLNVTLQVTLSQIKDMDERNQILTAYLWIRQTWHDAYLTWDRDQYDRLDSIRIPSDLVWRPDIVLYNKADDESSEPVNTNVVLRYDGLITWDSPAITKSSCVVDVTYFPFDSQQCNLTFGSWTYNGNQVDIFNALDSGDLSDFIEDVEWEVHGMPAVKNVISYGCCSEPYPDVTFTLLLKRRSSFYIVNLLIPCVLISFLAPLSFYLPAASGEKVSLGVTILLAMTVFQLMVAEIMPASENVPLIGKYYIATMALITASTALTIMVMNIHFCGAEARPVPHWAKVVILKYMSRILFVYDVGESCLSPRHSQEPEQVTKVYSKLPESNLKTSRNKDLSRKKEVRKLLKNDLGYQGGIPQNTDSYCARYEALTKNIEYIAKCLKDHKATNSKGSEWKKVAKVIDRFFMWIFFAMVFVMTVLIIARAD
Sequence of Nicotinic acetylcholine receptor alpha9/alpha10 (Q9JLB5 whole entry): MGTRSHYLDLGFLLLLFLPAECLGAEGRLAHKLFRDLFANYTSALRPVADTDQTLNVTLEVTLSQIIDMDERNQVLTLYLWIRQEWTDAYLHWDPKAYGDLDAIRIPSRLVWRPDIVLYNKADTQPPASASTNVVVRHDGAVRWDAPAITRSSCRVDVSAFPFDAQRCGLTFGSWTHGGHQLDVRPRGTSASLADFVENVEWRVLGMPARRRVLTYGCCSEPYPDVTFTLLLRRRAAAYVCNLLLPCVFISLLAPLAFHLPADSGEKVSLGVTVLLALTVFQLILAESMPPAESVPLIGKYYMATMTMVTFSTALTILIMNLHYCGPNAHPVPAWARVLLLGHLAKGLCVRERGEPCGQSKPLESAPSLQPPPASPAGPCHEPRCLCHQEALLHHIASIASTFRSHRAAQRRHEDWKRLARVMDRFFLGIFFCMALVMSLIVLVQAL

On to `CC[C@H](C)[C@@H]1NC(=O)[C@H](CCCNC(=N)N)NC(=O)[C@H](CCCNC(=N)N)NC(=O)[C@@H](NC(=O)[C@H](Cc2ccc(O)cc2)NC(=O)[C@H](CCCNC(=N)N)NC(=O)[C@H](CCCNC(=N)N)NC(=O)[C@H](CCCNC(=N)N)NC(=O)[C@H](CCCNC(=N)N)NC(=O)[C@H](CC(=O)O)NC(=O)[C@H](Cc2ccc(O)cc2)NC(=O)[C@@H]2CCCN2C(=O)[C@H](CO)NC(=O)[C@H](CCCNC(=N)N)NC(=O)[C@@H]2CSSC[C@H](NC(=O)[C@@H](N)[C@@H](C)O)C(=O)N[C@@H](CCCNC(=N)N)C(=O)N[C@@H](CO)C(=O)N[C@@H](CO)C(=O)NCC(=O)N[C@@H](CCCNC(=N)N)C(=O)N[C@@H](Cc3ccc(O)cc3)C(=O)N2)CSSC[C@@H](C(=O)N[C@H](C(=O)O)C(C)C)NC(=O)[C@H](C)NC(=O)[C@@H](C)NC(=O)[C@H]([C@@H](C)O)NC1=O`, for which the IC50 in assay [1] stood at 0.013 µM; in assay [2], 6.69 µM.
The corresponding values for `CC[C@H](C)[C@@H]1NC(=O)[C@H](CCCNC(=N)N)NC(=O)[C@H](CCCNC(=N)N)NC(=O)[C@@H]2CSSC[C@H](NC(=O)[C@H](Cc3ccc(O)cc3)NC(=O)[C@H](CCCNC(=N)N)NC(=O)CNC(=O)[C@H](CO)NC(=O)[C@H](CO)NC(=O)[C@H](CCCNC(=N)N)NC(=O)[C@@H](NC(=O)[C@@H](N)[C@@H](C)O)CSSC[C@@H](C(=O)N[C@H](C(=O)O)C(C)C)NC(=O)[C@H](C)NC(=O)[C@H](CC(=O)O)NC(=O)[C@H]([C@@H](C)O)NC1=O)C(=O)N[C@@H](CCCNC(=N)N)C(=O)N[C@@H](CO)C(=O)N[C@@H](C)C(=O)N[C@@H](Cc1ccc(O)cc1)C(=O)N[C@@H](CC(=O)O)C(=O)N[C@@H](CCCNC(=N)N)C(=O)N[C@@H](CCCNC(=N)N)C(=O)N[C@@H](CCCNC(=N)N)C(=O)N[C@@H](CCCNC(=N)N)C(=O)N[C@@H](Cc1ccc(O)cc1)C(=O)N2` (HELM PEPTIDE1{T.C.R.S.S.G.R.Y.C.R.S.A.Y.D.R.R.R.R.Y.C.R.R.I.T.D.A.C.V}$PEPTIDE1,PEPTIDE1,2:R3-27:R3|PEPTIDE1,PEPTIDE1,9:R3-20:R3$$$V2.0) are 0.01 µM and 1.78 µM.
The corresponding values for `CC[C@H](C)[C@@H]1NC(=O)[C@H](CCCNC(=N)N)NC(=O)[C@H](CCCNC(=N)N)NC(=O)[C@@H](NC(=O)[C@H](Cc2ccc(O)cc2)NC(=O)[C@H](CCCNC(=N)N)NC(=O)[C@H](CCCNC(=N)N)NC(=O)[C@H](CCCNC(=N)N)NC(=O)[C@H](CCCNC(=N)N)NC(=O)[C@H](C)NC(=O)[C@H](Cc2ccc(O)cc2)NC(=O)[C@@H]2CCCN2C(=O)[C@H](CO)NC(=O)[C@H](CCCNC(=N)N)NC(=O)[C@@H]2CSSC[C@H](NC(=O)[C@@H](N)[C@@H](C)O)C(=O)N[C@@H](CCCNC(=N)N)C(=O)N[C@@H](CO)C(=O)N[C@@H](CO)C(=O)NCC(=O)N[C@@H](CCCNC(=N)N)C(=O)N[C@@H](Cc3ccc(O)cc3)C(=O)N2)CSSC[C@@H](C(=O)N[C@H](C(=O)O)C(C)C)NC(=O)[C@H](C)NC(=O)[C@H](CC(=O)O)NC(=O)[C@H]([C@@H](C)O)NC1=O` (HELM PEPTIDE1{T.C.R.S.S.G.R.Y.C.R.S.P.Y.A.R.R.R.R.Y.C.R.R.I.T.D.A.C.V}$PEPTIDE1,PEPTIDE1,2:R3-9:R3|PEPTIDE1,PEPTIDE1,20:R3-27:R3$$$V2.0) are 0.015 µM and 3.08 µM.
The corresponding values for `CC[C@H](C)[C@@H]1NC(=O)[C@H](CCCNC(=N)N)NC(=O)[C@H](CCCNC(=N)N)NC(=O)[C@@H](NC(=O)[C@H](Cc2ccc(O)cc2)NC(=O)[C@H](CCCNC(=N)N)NC(=O)[C@H](CCCNC(=N)N)NC(=O)[C@H](CCCNC(=N)N)NC(=O)[C@H](CCCNC(=N)N)NC(=O)[C@H](CC(=O)O)NC(=O)[C@H](Cc2ccc(O)cc2)NC(=O)[C@@H]2CCCN2C(=O)[C@H](CO)NC(=O)[C@H](CCCNC(=N)N)NC(=O)[C@@H]2CSSC[C@H](NC(=O)[C@@H](N)[C@@H](C)O)C(=O)N[C@@H](CCCNC(=N)N)C(=O)N[C@@H](CO)C(=O)N[C@@H](C)C(=O)NCC(=O)N[C@@H](CCCNC(=N)N)C(=O)N[C@@H](Cc3ccc(O)cc3)C(=O)N2)CSSC[C@@H](C(=O)N[C@H](C(=O)O)C(C)C)NC(=O)[C@H](C)NC(=O)[C@H](CC(=O)O)NC(=O)[C@H]([C@@H](C)O)NC1=O` (HELM PEPTIDE1{T.C.R.S.A.G.R.Y.C.R.S.P.Y.D.R.R.R.R.Y.C.R.R.I.T.D.A.C.V}$PEPTIDE1,PEPTIDE1,2:R3-9:R3|PEPTIDE1,PEPTIDE1,20:R3-27:R3$$$V2.0) are 0.027 µM and 1.45 µM.
`CC[C@H](C)[C@@H]1NC(=O)[C@H](CCCNC(=N)N)NC(=O)[C@H](CCCNC(=N)N)NC(=O)[C@@H]2CSSC[C@H](NC(=O)[C@H](Cc3ccc(O)cc3)NC(=O)[C@H](C)NC(=O)CNC(=O)[C@H](CO)NC(=O)[C@H](CO)NC(=O)[C@H](CCCNC(=N)N)NC(=O)[C@@H](NC(=O)[C@@H](N)[C@@H](C)O)CSSC[C@@H](C(=O)N[C@H](C(=O)O)C(C)C)NC(=O)[C@H](C)NC(=O)[C@H](CC(=O)O)NC(=O)[C@H]([C@@H](C)O)NC1=O)C(=O)N[C@@H](CCCNC(=N)N)C(=O)N[C@@H](CO)C(=O)N1CCC[C@H]1C(=O)N[C@@H](Cc1ccc(O)cc1)C(=O)N[C@@H](CC(=O)O)C(=O)N[C@@H](CCCNC(=N)N)C(=O)N[C@@H](CCCNC(=N)N)C(=O)N[C@@H](CCCNC(=N)N)C(=O)N[C@@H](CCCNC(=N)N)C(=O)N[C@@H](Cc1ccc(O)cc1)C(=O)N2` (HELM PEPTIDE1{T.C.R.S.S.G.A.Y.C.R.S.P.Y.D.R.R.R.R.Y.C.R.R.I.T.D.A.C.V}$PEPTIDE1,PEPTIDE1,2:R3-27:R3|PEPTIDE1,PEPTIDE1,9:R3-20:R3$$$V2.0): the values for the concentration for half-maximal inhibition (IC50) in assay [1] and in assay [2] were 0.048 µM and over 10 µM, respectively.
`CC[C@H](C)[C@@H]1NC(=O)[C@H](CCCNC(=N)N)NC(=O)[C@H](CCCNC(=N)N)NC(=O)[C@@H](NC(=O)[C@H](Cc2ccc(O)cc2)NC(=O)[C@H](CCCNC(=N)N)NC(=O)[C@H](CCCNC(=N)N)NC(=O)[C@H](CCCNC(=N)N)NC(=O)[C@H](CCCNC(=N)N)NC(=O)[C@H](CC(=O)O)NC(=O)[C@H](Cc2ccc(O)cc2)NC(=O)[C@@H]2CCCN2C(=O)[C@H](CO)NC(=O)[C@H](CCCNC(=N)N)NC(=O)[C@@H]2CSSC[C@H](NC(=O)[C@@H](N)[C@@H](C)O)C(=O)N[C@@H](CCCNC(=N)N)C(=O)N[C@@H](CO)C(=O)N[C@@H](CO)C(=O)NCC(=O)N[C@@H](CCCNC(=N)N)C(=O)N[C@@H](C)C(=O)N2)CSSC[C@@H](C(=O)N[C@H](C(=O)O)C(C)C)NC(=O)[C@H](C)NC(=O)[C@H](CC(=O)O)NC(=O)[C@H]([C@@H](C)O)NC1=O` (HELM PEPTIDE1{T.C.R.S.S.G.R.A.C.R.S.P.Y.D.R.R.R.R.Y.C.R.R.I.T.D.A.C.V}$PEPTIDE1,PEPTIDE1,2:R3-9:R3|PEPTIDE1,PEPTIDE1,20:R3-27:R3$$$V2.0): the concentration for half-maximal inhibition (IC50) came out at 0.01 µM in assay [1] and 1.7 µM in assay [2].
The corresponding values for `CC[C@H](C)[C@@H]1NC(=O)[C@H](CCCNC(=N)N)NC(=O)[C@H](CCCNC(=N)N)NC(=O)[C@@H]2CSSC[C@H](NC(=O)[C@H](Cc3ccc(O)cc3)NC(=O)[C@H](CCCNC(=N)N)NC(=O)CNC(=O)[C@H](CO)NC(=O)[C@H](CO)NC(=O)[C@H](CCCNC(=N)N)NC(=O)[C@@H](NC(=O)[C@@H](N)[C@@H](C)O)CSSC[C@@H](C(=O)N[C@H](C(=O)O)C(C)C)NC(=O)[C@H](C)NC(=O)[C@H](CC(=O)O)NC(=O)[C@H]([C@@H](C)O)NC1=O)C(=O)N[C@@H](CCCNC(=N)N)C(=O)N[C@@H](CO)C(=O)N1CCC[C@H]1C(=O)N[C@@H](Cc1ccc(O)cc1)C(=O)N[C@@H](C)C(=O)N[C@@H](CCCNC(=N)N)C(=O)N[C@@H](CCCNC(=N)N)C(=O)N[C@@H](CCCNC(=N)N)C(=O)N[C@@H](CCCNC(=N)N)C(=O)N[C@@H](Cc1ccc(O)cc1)C(=O)N2` (HELM PEPTIDE1{T.C.R.S.S.G.R.Y.C.R.S.P.Y.A.R.R.R.R.Y.C.R.R.I.T.D.A.C.V}$PEPTIDE1,PEPTIDE1,2:R3-27:R3|PEPTIDE1,PEPTIDE1,9:R3-20:R3$$$V2.0) are 0.0047 µM and 7.64 µM.
For `CC[C@H](C)[C@@H]1NC(=O)[C@H](CCCNC(=N)N)NC(=O)[C@H](C)NC(=O)[C@@H](NC(=O)[C@H](Cc2ccc(O)cc2)NC(=O)[C@H](CCCNC(=N)N)NC(=O)[C@H](CCCNC(=N)N)NC(=O)[C@H](CCCNC(=N)N)NC(=O)[C@H](CCCNC(=N)N)NC(=O)[C@H](CC(=O)O)NC(=O)[C@H](Cc2ccc(O)cc2)NC(=O)[C@@H]2CCCN2C(=O)[C@H](CO)NC(=O)[C@H](CCCNC(=N)N)NC(=O)[C@@H]2CSSC[C@H](NC(=O)[C@@H](N)[C@@H](C)O)C(=O)N[C@@H](CCCNC(=N)N)C(=O)N[C@@H](CO)C(=O)N[C@@H](CO)C(=O)NCC(=O)N[C@@H](CCCNC(=N)N)C(=O)N[C@@H](Cc3ccc(O)cc3)C(=O)N2)CSSC[C@@H](C(=O)N[C@H](C(=O)O)C(C)C)NC(=O)[C@H](C)NC(=O)[C@H](CC(=O)O)NC(=O)[C@H]([C@@H](C)O)NC1=O`, in that order: 0.014 µM and 5.61 µM.
For `CC[C@H](C)[C@@H]1NC(=O)[C@H](CCCNC(=N)N)NC(=O)[C@H](C)NC(=O)[C@@H]2CSSC[C@H](NC(=O)[C@H](Cc3ccc(O)cc3)NC(=O)[C@H](CCCNC(=N)N)NC(=O)CNC(=O)[C@H](CO)NC(=O)[C@H](CO)NC(=O)[C@H](CCCNC(=N)N)NC(=O)[C@@H](NC(=O)[C@@H](N)[C@@H](C)O)CSSC[C@@H](C(=O)N[C@H](C(=O)O)C(C)C)NC(=O)[C@H](C)NC(=O)[C@H](CC(=O)O)NC(=O)[C@H]([C@@H](C)O)NC1=O)C(=O)N[C@@H](CCCNC(=N)N)C(=O)N[C@@H](CO)C(=O)N1CCC[C@H]1C(=O)N[C@@H](Cc1ccc(O)cc1)C(=O)N[C@@H](CC(=O)O)C(=O)N[C@@H](CCCNC(=N)N)C(=O)N[C@@H](CCCNC(=N)N)C(=O)N[C@@H](CCCNC(=N)N)C(=O)N[C@@H](CCCNC(=N)N)C(=O)N[C@@H](Cc1ccc(O)cc1)C(=O)N2`, in that order: 0.037 µM and over 10 µM.
